Results reported in patent US20090011935A1, “Method of Inducing Tolerance of Plants Against Bacterioses” (BASF SE, priority 2006, published 2009).

Test system: bacteria
Experiment: Effect of metiram alone on bacteria

How did the effect on bacteria turn out when metiram was run?
Its effect on bacteria is “very close to zero”.
